For the test, the target named is T1, Humane Glykogenphosphorylase a (Homo sapiens, UniProt P06737).
T1 sequence (P06737 1-847): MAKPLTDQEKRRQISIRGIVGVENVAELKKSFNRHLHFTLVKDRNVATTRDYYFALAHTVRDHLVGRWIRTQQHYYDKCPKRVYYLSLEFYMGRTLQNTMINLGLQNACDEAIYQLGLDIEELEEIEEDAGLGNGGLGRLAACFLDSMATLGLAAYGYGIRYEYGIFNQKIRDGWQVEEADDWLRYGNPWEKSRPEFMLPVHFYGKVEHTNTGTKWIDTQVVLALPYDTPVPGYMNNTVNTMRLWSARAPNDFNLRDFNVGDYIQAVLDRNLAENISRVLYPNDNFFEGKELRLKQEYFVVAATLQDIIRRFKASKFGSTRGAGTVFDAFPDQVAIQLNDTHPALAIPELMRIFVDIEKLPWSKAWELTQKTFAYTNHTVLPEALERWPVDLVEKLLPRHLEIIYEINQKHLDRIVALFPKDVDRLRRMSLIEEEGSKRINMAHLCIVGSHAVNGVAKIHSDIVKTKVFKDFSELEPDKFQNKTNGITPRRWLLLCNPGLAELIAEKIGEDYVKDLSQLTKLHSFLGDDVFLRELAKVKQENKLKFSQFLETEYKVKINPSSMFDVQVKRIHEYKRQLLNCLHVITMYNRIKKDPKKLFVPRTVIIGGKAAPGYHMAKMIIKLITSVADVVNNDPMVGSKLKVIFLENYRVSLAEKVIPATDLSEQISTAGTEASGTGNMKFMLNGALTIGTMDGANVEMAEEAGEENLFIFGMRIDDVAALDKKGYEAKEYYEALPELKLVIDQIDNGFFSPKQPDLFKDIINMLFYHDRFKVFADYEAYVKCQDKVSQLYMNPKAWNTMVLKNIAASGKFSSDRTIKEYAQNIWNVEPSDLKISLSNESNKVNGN
Put plainly: Glycogen phosphorylase a activity test (reverse direction, release of inorganic phosphate). The test is classed as biochemical. As to conditions: 10 µM test substance, in vitro, 40 min at room temperature, absorbance at 820 nm; for inhibition at 10 µM: read-out: % Inhibition bei 10 µM. The protocol: Glykogenphosphorylase a Aktivitätstest
Der Effekt von Verbindungen auf die Aktivität der aktiven Form der Glykogenphosphorylase (GPa) wurde in der umgekehrten Richtung, durch Verfolgen der Glykogensynthese aus Glukose-1-Phosphat an Hand der Bestimmung der Freisetzung von anorganischem Phosphat, gemessen.
Prüfsubstanzen wurden als 10 mM Lösung in DMSO zubereitet und auf 50 µM mit Pufferlösung T verdünnt. Zu 10 µl dieser Lösung wurden 10 µl 37,5 mM Glukose, gelöst in Pufferlösung T und 5 mg/mL Glykogen, sowie 10 µl einer Lösung von humaner Glykogenphosphorylase a ([…]) und 20 µl Glukose-1-Phosphat, 2,5 mM zugegeben. Der basale Wert der Glykogenphosphorylase a Aktivität in Abwesenheit von Prüfsubstanz wurde durch Zugabe von 10 µl Pufferlösung T (0,1 % DMSO) bestimmt. […] Zur Bestimmung der Hintergrundsabsorption wurde in einem separaten Ansatz die Stop-Lösung unmittelbar nach Zugabe der Glukose-1-Phosphatlösung zugegeben.
Dieser Test wurde mit einer Konzentrationen von 10 µM der Prüfsubstanz durchgeführt, um die jeweilige Hemmung der Glykogenphosphorylase a in vitro durch die Prüfsubstanz zu bestimmen. Tabelle 2: Biologische Aktivität

As to `O=C(NC(=O)c1ccc(Cl)cc1Cl)Nc1ccc(C(=O)O)cc1[N+](=O)[O-]` [compound 2], the inhibition at 10 µM came out at 85%.

As to `CCOC(=O)c1ccc(NC(=O)NC(=O)c2c(F)cccc2F)cc1` [Vergleichsbeispiel A, reference compound], the inhibition at 10 µM amounted to 3%.

For the compound `NC(CO)(CO)CO.O=C(NC(=O)c1cc(F)c(F)cc1Cl)Nc1ccc(C(=O)O)cc1OC(F)(F)F` [compound 49, 4-[3-(2-Chlor-4,5-difluor-benzoyl)-ureido]-3-trifluoromethoxy-benzoesäure TRIS-Salz], the “% Inhibition bei 10 µM” value is on record as 103%.

Turning to `O=C(NC(=O)c1ccccc1Cl)Nc1ccc(C(=O)O)cc1[N+](=O)[O-]` [compound 1], the inhibition at 10 µM was 71%.

On to `O=C(NC(=O)c1ccc(Cl)cc1Cl)Nc1ccc(C(=O)O)cc1O` [compound 5], for which the inhibition at 10 µM is 80%.

As a reminder, the inhibition is the relative decrease from the control value, in per cent.

For the origin of these results see patent EP1497262B1, “ACYL-4-CARBOXYPHENYLUREA DERIVATIVES, METHOD FOR PRODUCTION AND USE THEREOF” (Sanofi-Aventis Deutschland GmbH, priority 2002, dated 2003).
